Measured values as given in patent US6921770B2 (priority 2000, dated 2005).

Tested on: rice blast fungi
Type: in vivo, Pyricularia grisea

| Compound | Inhibiting Ratio (%) (at 250 ppm) |
| --- | --- |
| 2-(2,4-dichloromethylphenylimino)-3-methyl-4-[N-(3-chlorophenyl)carbamoylmethyl]-1,3-thiazol-4-ine hydrobromide [Compound 60] | 100 |
| 2-(2,4-difluorophenylimino)-3-methyl-4-[N-(methoxyphenyl)carbamoylmethyl]-1,3-thiazol-4-ine [Compound 340] | 94 |
| 2-(2-fluorophenylimino)-3-methyl-4-[N-(methoxyphenyl)carbamoylmethyl]-1,3-thiazol-4-ine [Compound 338] | 97 |
| 2-(3-chloro-4-fluorophenylimino)-3-methyl-4-[N-(methoxyphenyl)carbamoylmethyl]-1,3-thiazol-4-ine [Compound 336] | 96 |
| 2-(3-fluorophenylimino)-3-methyl-4-[N-(methoxyphenyl)carbamoylmethyl]-1,3-thiazol-4-ine [Compound 337] | 95 |
| Br.Cn1c(CC(=O)Nc2ccccc2)csc1=Nc1cccc(C(F)(F)F)c1 [Compound 1, 2-(3-trifluoromethylphenylimino)-3-methyl-4-(N-phenylcarbamoylmethyl)-1,3-thiazol-4-ine hydrobromide] | 75 |
| Br.Cn1c(CC(=O)Nc2ccccc2)csc1=Nc1ccc(C(F)(F)F)cc1 [Compound 2, 2-(4-trifluoromethylphenylimino)-3-methyl-4-(N-phenylcarbamoylmethyl)-1,3-thiazol-4-ine hydrobromide] | 86 |
| Br.Cn1c(CC(=O)Nc2ccccc2)csc1=Nc1ccc(Oc2ccccc2)cc1 [Compound 3, 2-(4-phenoxyphenylimino)-3-methyl-4-(N-phenylcarbamoylmethyl)-1,3-thiazol-4-ine hydrobromide] | 95 |
| Br.Cc1ccc(NC(=O)Cc2csc(=Nc3cc(Cl)cc(Cl)c3)n2C)cc1 [Compound 4, 2-(3,5-dichlorophenylimino)-3-methyl-4-[N-(4-methylphenyl)carbamoylmethyl]-1,3-thiazol-4-ine hydrobromide] | 83 |
| Br.Cc1ccc(NC(=O)Cc2csc(=Nc3cccc(C(F)(F)F)c3)n2C)cc1 [Compound 6, 2-(3-trifluoromethylphenylimino)-3-methyl-4-[N-(4-methylphenyl)carbamoylmethyl]-1,3-thiazol-4-ine hydrobromide] | 99 |
| Br.Cn1c(CC(=O)Nc2cccc(C(F)(F)F)c2)csc1=Nc1cccc(C(F)(F)F)c1 [Compound 7, 2-(3-trifluoromethylphenylimino)-3-methyl-4-[N-(3-trifluoromethylphenyl)carbamoylmethyl]-1,3-thiazol-4-ine hydrobromide] | 97 |
| Br.Cn1c(CC(=O)Nc2cccc(C(F)(F)F)c2)csc1=Nc1ccc(C(F)(F)F)cc1 [Compound 8, 2(4-trifluoromethylphenylimino)-3-methyl-4-[N-(3-trifluoromethylphenyl)carbamoylmethyl]-1,3-thiazol-4-ine hydrobromide] | 90 |
| Br.Cc1ccc(NC(=O)Cc2csc(=Nc3ccc(Oc4ccccc4)cc3)n2C)cc1 [Compound 13, 2-(4-phenoxyphenylimino)-3-methyl-4-[N-(4-methylphenyl)carbamoylmethyl]-1,3-thiazol-4-ine hydrobromide] | 99 |
| Br.Cc1ccc(NC(=O)Cc2csc(=Nc3ccc(C(F)(F)F)cc3)n2C)cc1 [Compound 14, 2-(4-trifluoromethylphenylimino)-3-methyl-4-[N-(4-methylphenyl)carbamoylmethyl]-1,3-thiazol-4-ine hydrobromide] | 99 |
| Br.Cc1ccc(NC(=O)Cc2csc(=Nc3cccc([N+](=O)[O-])c3)n2C)cc1 [Compound 15, 2-(3-nitrophenylimino)-3-methyl-4-[N-(4-methylphenyl)carbamoylmethyl]-1,3-thiazol-4-ine hydrobromide] | 91 |
| Br.Cc1ccc(NC(=O)Cc2csc(=Nc3ccc([N+](=O)[O-])cc3)n2C)cc1 [Compound 16, 2-(4-nitrophenylimino)-3-methyl-4-[N-(4-methylphenyl)carbamoylmethyl]-1,3-thiazol-4-ine hydrobromide] | 100 |
| Br.Cn1c(CC(=O)Nc2cccc(Cl)c2)csc1=Nc1cccc([N+](=O)[O-])c1 [Compound 18, 2-(3-nitrophenylimino)-3-methyl-4-[N-(3-chlorophenyl)carbamoylmethyl]-1,3-thiazol-4-ine hydrobromide] | 93 |
| Br.Cn1c(CC(=O)Nc2cccc(Cl)c2)csc1=Nc1cccc(C(F)(F)F)c1 [Compound 19, 2-(3-trifluoromethylphenylimino)-3-methyl-4-[N-(3-chlorophenyl)carbamoylmethyl]-1,3-thiazol-4-ine hydrobromide] | 91 |

| Compound | Inhibiting Ratio (%) (at 250 ppm) |
| --- | --- |
| Br.Cn1c(CC(=O)Nc2cccc(Cl)c2)csc1=Nc1ccc(C(F)(F)F)cc1 [Compound 20, 2-(4-trifluoromethylphenylimino)-3-methyl-4-[N-(3-chlorophenyl)carbamoylmethyl]-1,3-thiazol-4-ine hydrobromide] | 91 |
| Br.Cn1c(CC(=O)Nc2cccc(Cl)c2)csc1=Nc1cc(Cl)cc(Cl)c1 [Compound 21, 2-(3,5-dichlorophenylimino)-3-methyl-4-[N-(3-chlorophenyl)carbamoylmethyl]-1,3-thiazol-4-ine hydrobromide] | 88 |
| Br.CC(C)=CCOc1cc(N=c2scc(CC(=O)Nc3ccccc3)n2C)ccc1Cl [Compound 22, 2-(4-chloro-3-(3,3-dimethylallyloxy)phenylimino)-3-methyl-4-(N-phenylcarbamoylmethyl)-1,3-thiazol-4-ine hydrobromide] | 97 |
| Br.CC(C)OC(=O)c1cc(N=c2scc(CC(=O)Nc3ccccc3)n2C)ccc1Cl [Compound 23, 2-(4-chloro-3-isopropyloxycarbonylphenylimino)-3-methyl-4-(N-phenylcarbamoylmethyl)-1,3-thiazol-4-ine hydrobromide] | 96 |
| Br.Cc1ccc(Cl)cc1N=c1scc(CC(=O)Nc2ccccc2)n1C [Compound 24, 2-(5-chloro-2-methylphenylimino)-3-methyl-4-(N-phenylcarbamoymethyl)-1,3-thiazol-4-ine hydrobromide] | 97 |
| Br.Cc1cc(Cl)ccc1N=c1scc(CC(=O)Nc2ccccc2)n1C [Compound 25, 2-(4-chloro-2-methylphenylimino)-3-methyl-4-(N-phenylcarbamoylmethyl)-1,3-thiazol-4-ine hydrobromide] | 100 |
| Br.Cc1cc(Br)ccc1N=c1scc(CC(=O)Nc2ccccc2)n1C [Compound 26, 2-(4-bromo-2-methylphenylimino)-3-methyl-4-(N-phenylcarbamoylmethyl)-1,3-thiazol-4-ine hydrobromide] | 100 |
| Br.COc1ccccc1N=c1scc(CC(=O)Nc2ccc(C)cc2)n1C [Compound 28, 2-(2-methoxyphenylimino)-3-methyl-4-[N-(4-methylphenyl)carbamoylmethyl]-1,3-thiazol-4-ine hydrobromide] | 100 |
| Br.COc1ccc(N=c2scc(CC(=O)Nc3ccc(C)cc3)n2C)cc1 [Compound 29, 2-(4-methoxyphenylimino)-3-methyl-4-[N-(4-methylphenyl)carbamoylmethyl]-1,3-thiazol-4-ine hydrobromide] | 100 |
| Br.CCCCc1ccc(N=c2scc(CC(=O)Nc3ccc(C)cc3)n2C)cc1 [Compound 30, 2-[4-(n-butyl)phenylimino]-3-methyl-4-[N-(4-methylphenyl)carbamoylmethyl]-1,3-thiazol-4-ine hydrobromide] | 100 |
| Br.Cc1ccc(NC(=O)Cc2csc(=Nc3ccc(Cl)cc3C)n2C)cc1 [Compound 32, 2-(4-chloro-2-methylphenylimino)-3-methyl-4-[N-(4-methylphenyl)carbamoylmethyl]-1,3-thiazol-4-ine hydrobromide] | 100 |
| Br.Cc1ccc(NC(=O)Cc2csc(=Nc3ccc(Br)cc3C)n2C)cc1 [Compound 33, 2-(4-bromo-2-methylphenylimino)-3-methyl-4-[N-(4-methylphenyl)carbamoylmethyl]-1,3-thiazol-4-ine hydrobromide] | 100 |
| Br.Cc1ccc(NC(=O)Cc2csc(=Nc3cc(Cl)ccc3C)n2C)cc1 [Compound 34, 2-(5-chloro-2-methylphenylimino)-3-methyl-4-[N-(4-methylphenyl)carbamoylmethyl]-1,3-thiazol-4-ine hydrobromide] | 100 |
| Br.Cc1ccc(NC(=O)Cc2csc(=Nc3ccc(C)c(Cl)c3)n2C)cc1 [Compound 35, 2-(3-chloro-4-methylphenylimino)-3-methyl-4[N-(4-methylphenyl)carbamoylmethyl]-1,3-thiazol-4-ine hydrobromide] | 100 |
| Br.COc1ccc(N=c2scc(CC(=O)Nc3cccc(C(F)(F)F)c3)n2C)cc1 [Compound 36, 2-(4-methoxyphenylimino)-3-methyl-4-[N-(3-trifluoromethylphenyl)carbamoylmethyl]-1,3-thiazol-4-ine hydrobromide] | 98 |
| Br.Cn1c(CC(=O)Nc2ccccc2)csc1=Nc1ccc(Cl)c(C(F)(F)F)c1 [Compound 37, 2-(4-chloro-3-trifluoromethylphenylimino)-3-methyl-4-(N-phenylcarbamoylmethyl)-1,3-thiazol-4-ine hydrobromide] | 100 |
| Br.Cn1c(CC(=O)Nc2ccccc2)csc1=Nc1ccc(OC(F)(F)F)cc1 [Compound 39, 2-(4-trifluoromethoxyphenylimino)-3-methyl-4-(N-phenylcarbamoylmethyl)-1,3-thiazol-4-ine hydrobromide] | 99 |
| Br.Cn1c(CC(=O)Nc2ccccc2)csc1=Nc1ccc(Cl)cc1F [Compound 42, 2-(4-chloro-2-fluorophenylimino)-3-methyl-4-(N-phenylcarbamoylmethyl)-1,3-thiazol-4-ine hydrobromide] | 100 |
